Test: Breakdown of acid-sensitive active substances in the effervescent system
Assay type: physicochemical
Conditions: in the effervescent system according to the invention, also in a stress situation

## NC(N)=Nc1nc(CSCCC(N)=NS(N)(=O)=O)cs1 [famotidine]
  tendency of active substance to break down and form decomposition products: substantially lower tendency

— patent US6497900B2, “Effervescent base” (priority 1997, dated 2002)
